Laboratory results reported in patent US12662476B2, “Herbicidal thiazole compounds” (SYNGENTA CROP PROTECTION AG, priority 2019, dated 2026).

How the values were obtained:
Type in all cases: in vivo
[1] = tested on: Amaranthus retoflexus (AMARE); test: Post-emergence herbicidal glasshouse test; conditions: sprayed after 8 days cultivation, 250 g/ha, evaluated after 13 days, five-point scale
Experimental: (§1) Seeds of a variety of test species are sown in standard soil in pots Amaranthus retoflexus (AMARE), Echinochloa crus-galli (ECHCG), Setaria faberi (SETFA)). After cultivation for one day (pre-emergence) or after 8 days cultivation (post-emergence) under controlled conditions in a glasshouse (at 24/16° C., day/night; 14 hours light; 65% humidity), the plants are sprayed with an aqueous spray solution derived from the formulation of the technical active ingredient in acetone/water (50:50) solution containing 0.5% Tween™ 20 (polyoxyethylene sorbitan monolaurate, CAS RN 9005-64-5). Compounds are applied at 250 g/ha unless otherwise stated. The test plants are then grown in a glasshouse under controlled conditions in a glasshouse (at 24/16° C., day/night; 14 hours light; 65% humidity) and watered twice daily. After 13 days for pre- and post-emergence, the test is evaluated for the percentage damage caused to the plant. The biological activities are shown in the following table on a five-point scale (5=81-100%; 4=61-80%; 3=41-60%; 2=21-40%; 1=0-20%).

[2] = tested on: Setaria faberi (SETFA); test: Post-emergence herbicidal glasshouse test; conditions: sprayed after 8 days cultivation, 250 g/ha, evaluated after 13 days, five-point scale
Experimental: as §1

[3] = tested on: Echinochloa crus-galli (ECHCG); test: Post-emergence herbicidal glasshouse test; conditions: sprayed after 8 days cultivation, 250 g/ha, evaluated after 13 days, five-point scale
Experimental: as §1

[4] = tested on: Amaranthus retoflexus (AMARE); test: Pre-emergence herbicidal glasshouse test; conditions: sprayed after one day cultivation, 250 g/ha, evaluated after 13 days, five-point scale
Experimental: as §1

[5] = tested on: Setaria faberi (SETFA); test: Pre-emergence herbicidal glasshouse test; conditions: sprayed after one day cultivation, 250 g/ha, evaluated after 13 days, five-point scale
Experimental: as §1

[6] = tested on: Echinochloa crus-galli (ECHCG); test: Pre-emergence herbicidal glasshouse test; conditions: sprayed after one day cultivation, 250 g/ha, evaluated after 13 days, five-point scale
Experimental: as §1

SMILES | percentage damage caused to the plant, AMARE [1] | percentage damage caused to the plant, SETFA [2] | percentage damage caused to the plant, ECHCG [3] | percentage damage caused to the plant, AMARE [4] | percentage damage caused to the plant, SETFA [5] | percentage damage caused to the plant, ECHCG [6]
Fc1cccc(Oc2ncc(C(F)F)s2)c1-c1cc(C(F)F)no1 [Compound 1.001, 3-(difluoromethyl)-5-[2-[5-(difluoromethyl)thiazol-2-yl]oxy-6-fluoro-phenyl]isoxazole] | 5 (5=81-100%) | 5 (5=81-100%) | 5 (5=81-100%) | 5 (5=81-100%) | 5 (5=81-100%) | 5 (5=81-100%)
C=Cc1cnc(Oc2cccc(F)c2-c2cc(C(F)F)no2)s1 [Compound 1.002, 3-(difluoromethyl)-5-[2-fluoro-6-(5-vinylthiazol-2-yl)oxy-phenyl]isoxazole] | 2 (2=21-40%) | 4 (4=61-80%) | 4 (4=61-80%) | 1 (1=0-20%) | 2 (2=21-40%) | 4 (4=61-80%)
Fc1cccc(Oc2nccs2)c1-c1cc(C(F)F)no1 [Compound 1.003] | 2 (2=21-40%) | 2 (2=21-40%) | 1 (1=0-20%) | 5 (5=81-100%) | 2 (2=21-40%) | 2 (2=21-40%)
Fc1cccc(Oc2ncc(Br)s2)c1-c1cc(C(F)F)no1 [Compound 1.004, 5-[2-(5-bromothiazol-2-yl)oxy-6-fluoro-phenyl]-3-(difluoromethyl)isoxazole] | 5 (5=81-100%) | 5 (5=81-100%) | 5 (5=81-100%) | 5 (5=81-100%) | 5 (5=81-100%) | 4 (4=61-80%)
Cc1cnc(Oc2cccc(F)c2-c2cc(C(F)F)no2)s1 [Compound 1.005, 3-(difluoromethyl)-5-[2-fluoro-6-(5-methylthiazol-2-yl)oxy-phenyl]isoxazole] | 4 (4=61-80%) | 4 (4=61-80%) | 4 (4=61-80%) | 5 (5=81-100%) | 4 (4=61-80%) | 3 (3=41-60%)
Fc1cccc(Oc2ncc(Cl)s2)c1-c1cc(C(F)F)no1 [Compound 1.006] | 5 (5=81-100%) | 5 (5=81-100%) | 4 (4=61-80%) | 5 (5=81-100%) | 5 (5=81-100%) | 5 (5=81-100%)
Fc1cccc(Oc2nc(Br)cs2)c1-c1cc(C(F)F)no1 [Compound 1.007] | 5 (5=81-100%) | 5 (5=81-100%) | 4 (4=61-80%) | 5 (5=81-100%) | 5 (5=81-100%) | 3 (3=41-60%)
Fc1cccc(Oc2nc(Cl)cs2)c1-c1cc(C(F)F)no1 [Compound 1.008] | 4 (4=61-80%) | 1 (1=0-20%) | 2 (2=21-40%) | 3 (3=41-60%) | 3 (3=41-60%) | 1 (1=0-20%)
Fc1cccc(Oc2nc(C(F)F)cs2)c1-c1cc(C(F)F)no1 [Compound 1.009] | 4 (4=61-80%) | 2 (2=21-40%) | 2 (2=21-40%) | 4 (4=61-80%) | 5 (5=81-100%) | 3 (3=41-60%)
Fc1cccc(-c2cc(C(F)F)no2)c1Oc1ncc(Cl)s1 [Compound 1.010] | 4 (4=61-80%) | 4 (4=61-80%) | 3 (3=41-60%) | 5 (5=81-100%) | 4 (4=61-80%) | 4 (4=61-80%)
Cc1cccc(-c2cc(C(F)F)no2)c1Oc1ncc(Cl)s1 [Compound 1.011] | 2 (2=21-40%) | 3 (3=41-60%) | 3 (3=41-60%) | 4 (4=61-80%) | 1 (1=0-20%) | 4 (4=61-80%)
N#Cc1cccc(Oc2ncc(Cl)s2)c1-c1cc(C(F)F)no1 [Compound 1.012] | 5 (5=81-100%) | 4 (4=61-80%) | 3 (3=41-60%) | 2 (2=21-40%) | 5 (5=81-100%) | 4 (4=61-80%)
N#Cc1cccc(Oc2ncc(Br)s2)c1-c1cc(C(F)F)no1 [Compound 1.013] | 5 (5=81-100%) | 3 (3=41-60%) | 2 (2=21-40%) | 2 (2=21-40%) | 4 (4=61-80%) | 4 (4=61-80%)
N#Cc1cccc(Oc2ncc(C(F)F)s2)c1-c1cc(C(F)F)no1 [Compound 1.014] | 3 (3=41-60%) | 4 (4=61-80%) | 3 (3=41-60%) | 3 (3=41-60%) | 5 (5=81-100%) | 5 (5=81-100%)
FC(F)c1cc(-c2c(Cl)cccc2Oc2ncc(C(F)F)s2)on1 [Compound 1.019] | 4 (4=61-80%) | 5 (5=81-100%) | 4 (4=61-80%) | 2 (2=21-40%) | 5 (5=81-100%) | 5 (5=81-100%)
FC(F)c1cc(-c2c(Br)cccc2Oc2ncc(C(F)F)s2)on1 [Compound 1.020] | 4 (4=61-80%) | 5 (5=81-100%) | 4 (4=61-80%) | 1 (1=0-20%) | 5 (5=81-100%) | 5 (5=81-100%)
FC(F)c1cc(-c2ccccc2Oc2ncc(C(F)F)s2)on1 [Compound 1.021] | 4 (4=61-80%) | 3 (3=41-60%) | 1 (1=0-20%) | 3 (3=41-60%) | 4 (4=61-80%) | 4 (4=61-80%)
FC(F)c1cc(-c2c(Cl)cccc2Oc2ncc(Cl)s2)on1 [Compound 1.022] | 5 (5=81-100%) | 5 (5=81-100%) | 5 (5=81-100%) | 5 (5=81-100%) | 5 (5=81-100%) | 5 (5=81-100%)
FC(F)c1cc(-c2c(Br)cccc2Oc2ncc(Cl)s2)on1 [Compound 1.023] | 5 (5=81-100%) | 5 (5=81-100%) | 5 (5=81-100%) | 5 (5=81-100%) | 5 (5=81-100%) | 5 (5=81-100%)
FC(F)c1cc(-c2c(Br)cccc2Oc2ncc(Br)s2)on1 [Compound 1.024] | 5 (5=81-100%) | 5 (5=81-100%) | 5 (5=81-100%) | 4 (4=61-80%) | 4 (4=61-80%) | 5 (5=81-100%)
FC(F)c1cc(-c2c(Cl)cccc2Oc2ncc(Br)s2)on1 [Compound 1.025] | 5 (5=81-100%) | 5 (5=81-100%) | 5 (5=81-100%) | 5 (5=81-100%) | 5 (5=81-100%) | 5 (5=81-100%)
FC(F)c1cc(-c2ccccc2Oc2ncc(Cl)s2)on1 [Compound 1.026] | 4 (4=61-80%) | 4 (4=61-80%) | 4 (4=61-80%) | 4 (4=61-80%) | 4 (4=61-80%) | 4 (4=61-80%)
